In patent US20070203066A1, “Compositions and methods for inhibiting cellular proliferation” (priority 2005, published 2007):
Positions of bridges follow the written chain, without caps; N, C: chain ends. Residues, ends and D or L forms follow the SMILES beside them. Chains are numbered I, II in the order given.

Legend:
Assay type in all cases: cell-based
MDA-MB-231 cells = test: Proliferation assay of tumor cells (BrdU incorporation), MDA-MB-231; conditions: MDA-MB-231 proliferation, 48 hours, read-out: Inhibitory Activity (IC50 uM) MDA-MB-231
Procedure: (§1) The antiproliferative activity of selected peptides of the present invention was assessed on several tumor cell lines. Mouse Lewis lung carcinoma (LLC) cells were routinely cultured to near confluency in DMEM media with 10% FCS added. The cells were trypsinized and plated in a 96-well plate at 5,000 cells per well per 100 μl media supplemented with 2% FCS and antibiotics. MDA-MB-231 cells were routinely cultured to near confluency in advanced DMEM media supplemented with 10% FCS. The cells were allowed to adhere to the plate for at least 12 hours. Then, whole media and various concentrations of peptide, were added to the wells. The cells were cultured for 48 hours at 37 ° C. in a 5% CO2 atmosphere. Cell proliferation was determined using a bromo-deoxyuridine (BrdU) incorporation method as described by the manufacturer. Inhibition of cell proliferation, was assessed by BrdU incorporation.
(§2) The ability of representative peptides of this invention for their ability to inhibit various tumor cells line proliferation are listed below in Table 2.

[1] = tested on: Mouse Lewis lung carcinoma (LLC) cells; test: Proliferation assay of tumor cells (BrdU incorporation), LLC; conditions: 48 hours, read-out: Inhibitory Activity (IC50 uM) LLC
Procedure: as §1, §2

HUVECs = conditions: 48 h
Summary of the method: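 HUVECs seeded at 5,000 cells/well in EBM with 2% FCS, adhered ≥12 hours, then stimulated with bFGF 10 ng/ml or VEGF 5 ng/ml plus varying peptide concentrations. After 48 hours at 37 ° C, 5% CO2, proliferation inhibition read by BrdU incorporation.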

| IC50 (MDA-MB-231 cells) [µM] | IC50 [1] [µM] | Structure (SMILES) | IC50 (HUVECs) [µM] |
| --- | --- | --- | --- |
| < 10 | < 10 | CC[C@H](C)[C@H](NC(=O)[C@H](CCCNC(=N)N)NC(=O)[C@@H](NC(=O)[C@H](Cc1c[nH]cn1)NC(=O)[C@H](CCC(N)=O)NC(=O)[C@H](CCCNC(=N)N)NC(=O)[C@H](Cc1c[nH]cn1)NC(=O)[C@H](CCCNC(=N)N)NC(=O)[C@H](CCCNC(=N)N)NC(=O)[C@H](CCCNC(=N)N)NC(C)=O)C(C)C)C(=O)N[C@H](C(=O)N[C@@H](Cc1ccccc1)C(=O)NCCCC[C@H](NC(=O)[C@H](Cc1ccccc1)NC(=O)[C@@H](NC(=O)[C@@H](NC(=O)[C@H](CCCNC(=N)N)NC(=O)[C@@H](NC(=O)[C@H](Cc1c[nH]cn1)NC(=O)[C@H](CCC(N)=O)NC(=O)[C@H](CCCNC(=N)N)NC(=O)[C@H](Cc1c[nH]cn1)NC(=O)[C@H](CCCNC(=N)N)NC(=O)[C@H](CCCNC(=N)N)NC(=O)[C@H](CCCNC(=N)N)NC(C)=O)C(C)C)[C@@H](C)CC)[C@@H](C)CC)C(N)=O)[C@@H](C)CC [Peptide 244] (I: Ac-RRRHRQHVRIIFK-NH2 / II: Ac-RRRHRQHVRIIF; amide I:13-II:C) | < 10 |
| < 10 | < 10 | CC[C@H](C)[C@H](NC(=O)[C@H](CCCNC(=N)N)NC(=O)[C@@H](NC(=O)[C@H](CCCNC(=N)N)NC(=O)[C@H](CCC(N)=O)NC(=O)[C@H](CCCNC(=N)N)NC(=O)[C@H](Cc1c[nH]cn1)NC(=O)[C@H](Cc1c[nH]cn1)NC(=O)[C@H](CCCNC(=N)N)NC(=O)[C@H](CCCNC(=N)N)NC(C)=O)C(C)C)C(=O)N[C@H](C(=O)N[C@@H](Cc1ccccc1)C(=O)NCCCC[C@H](NC(=O)[C@H](Cc1ccccc1)NC(=O)[C@@H](NC(=O)[C@@H](NC(=O)[C@H](CCCNC(=N)N)NC(=O)[C@@H](NC(=O)[C@H](CCCNC(=N)N)NC(=O)[C@H](CCC(N)=O)NC(=O)[C@H](CCCNC(=N)N)NC(=O)[C@H](Cc1c[nH]cn1)NC(=O)[C@H](Cc1c[nH]cn1)NC(=O)[C@H](CCCNC(=N)N)NC(=O)[C@H](CCCNC(=N)N)NC(C)=O)C(C)C)[C@@H](C)CC)[C@@H](C)CC)C(N)=O)[C@@H](C)CC [Peptide 240] (I: Ac-RRHHRQRVRIIFK-NH2 / II: Ac-RRHHRQRVRIIF; amide I:13-II:C) | < 10 |
